Experimental data from ChEMBL document CHEMBL3861946 (Medchemcomm, 2016).
Where a SMILES comes first, the peptide text is derived from it. The star is where a group is joined. Cbz = O=C(OCc1ccccc1)*; CH2F = FC*

What was measured:
[1] = target: T1, Amine oxidase [flavin-containing] A (Homo sapiens, UniProt P21397); test: Inhibition of recombinant human MAOA using kynuramine as substrate assessed as decrease in formation of 4-hydroxyquinoline incubated for 20 mins by fluorescence assay
T1 sequence (P21397 whole entry): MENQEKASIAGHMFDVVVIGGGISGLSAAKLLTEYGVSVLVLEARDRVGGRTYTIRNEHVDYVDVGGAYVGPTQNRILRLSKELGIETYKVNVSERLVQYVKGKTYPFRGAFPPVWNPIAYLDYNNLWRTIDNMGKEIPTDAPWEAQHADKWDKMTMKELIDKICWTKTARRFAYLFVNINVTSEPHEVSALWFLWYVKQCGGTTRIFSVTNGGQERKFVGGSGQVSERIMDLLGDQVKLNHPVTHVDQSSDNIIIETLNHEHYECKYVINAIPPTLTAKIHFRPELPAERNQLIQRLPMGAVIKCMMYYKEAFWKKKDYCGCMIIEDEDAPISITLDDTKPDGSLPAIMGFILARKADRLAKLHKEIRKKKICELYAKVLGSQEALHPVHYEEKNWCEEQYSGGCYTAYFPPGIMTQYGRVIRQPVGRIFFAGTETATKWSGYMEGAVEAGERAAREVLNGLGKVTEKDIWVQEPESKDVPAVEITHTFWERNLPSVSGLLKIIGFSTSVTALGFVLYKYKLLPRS

[2] = target: T2, Amine oxidase [flavin-containing] B (Homo sapiens, UniProt P27338); test: Inhibition of recombinant human MAOB using kynuramine as substrate assessed as decrease in formation of 4-hydroxyquinoline incubated for 20 mins by fluorescence assay
T2 sequence (P27338 whole entry): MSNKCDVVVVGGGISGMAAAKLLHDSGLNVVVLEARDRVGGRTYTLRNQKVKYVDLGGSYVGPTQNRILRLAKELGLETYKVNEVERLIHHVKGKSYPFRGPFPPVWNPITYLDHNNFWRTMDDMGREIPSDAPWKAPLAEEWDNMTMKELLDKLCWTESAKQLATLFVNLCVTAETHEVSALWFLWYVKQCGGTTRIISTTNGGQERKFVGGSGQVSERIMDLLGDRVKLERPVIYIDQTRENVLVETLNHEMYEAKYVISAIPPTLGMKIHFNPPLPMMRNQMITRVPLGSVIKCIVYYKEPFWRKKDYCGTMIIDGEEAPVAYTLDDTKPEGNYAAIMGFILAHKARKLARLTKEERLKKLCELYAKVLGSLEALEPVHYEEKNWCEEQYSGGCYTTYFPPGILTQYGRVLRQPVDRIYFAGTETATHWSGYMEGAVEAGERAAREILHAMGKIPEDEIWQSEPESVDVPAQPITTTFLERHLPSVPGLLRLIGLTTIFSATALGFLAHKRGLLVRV

Caspase-3 = target: T3, Caspase-3 (Homo sapiens, UniProt P42574); test: Inhibition of recombinant human caspase-3 using Ac-DEVD-AMC as substrate preincubated for 10 mins followed by substrate addition measured after 60 mins by fluorometric assay
T3 sequence (P42574 whole entry): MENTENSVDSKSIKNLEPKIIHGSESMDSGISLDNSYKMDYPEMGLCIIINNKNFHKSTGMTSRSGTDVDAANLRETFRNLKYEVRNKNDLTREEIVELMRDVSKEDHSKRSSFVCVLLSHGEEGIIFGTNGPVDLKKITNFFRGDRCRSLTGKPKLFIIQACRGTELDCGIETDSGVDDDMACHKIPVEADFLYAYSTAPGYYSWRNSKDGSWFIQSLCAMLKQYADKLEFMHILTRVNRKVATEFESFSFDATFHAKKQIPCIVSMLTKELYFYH

Homo sapiens = species on record: Homo sapiens; test: Selectivity ratio of IC50 for recombinant human MAOB to IC50 for recombinant human MAOA
[3] = target: T1, Amine oxidase [flavin-containing] A; test: Time-dependent inhibition of recombinant human MAOA using kynuramine as substrate assessed as decrease in formation of 4-hydroxyquinoline at 2 times IC50 preincubated for 15 to 60 mins followed by substrate addition measured after 15 mins by fluorescence assay; settings: 0.25 h

| SMILES | IC50 [1] | Ki [1] | IC50 [2] | Ki [2] | IC50 (Caspase-3) | Ratio IC50 (Homo sapiens) | TDI [3] |
| --- | --- | --- | --- | --- | --- | --- | --- |
| CN(Cc1ccc(F)cc1)S(=O)(=O)c1ccc2c(c1)C(=O)C(=O)N2 | 8.26 µM | 2.18 µM | 5.96 µM | 2.57 µM |  |  |  |
| C#CCN1C(=O)C(=O)c2cc(S(=O)(=O)N(C)Cc3cccc(F)c3)ccc21 | 10.7 µM | 2.81 µM | 70.6 µM | 30.4 µM |  |  |  |
| O=C1Nc2ccccc2C1=O [ISATIN] |  |  |  |  | > 100 µM |  |  |
| C#CCN1C(=O)C(=O)c2cc(S(=O)(=O)N(C)Cc3ccc(F)cc3)ccc21 | 4.31 µM | 1.14 µM | > 100 µM |  | > 100 µM | > 23.9 |  |
| CN(Cc1ccccc1F)S(=O)(=O)c1ccc2c(c1)C(=O)C(=O)N2 | 21.6 µM | 5.7 µM | > 100 µM |  |  |  |  |
| C#CCN(C)[C@H](C)Cc1ccccc1 [SELEGILINE] |  |  |  |  | > 100 µM |  |  |
| C#CCN1C(=O)C(=O)c2ccccc21 | 30.9 µM | 8.14 µM | 35.2 µM | 15.1 µM | > 100 µM | 2.12 |  |
| CN(Cc1cccc(F)c1)S(=O)(=O)c1ccc2c(c1)C(=O)C(=O)N2 | 22.8 µM | 6 µM | 8.32 µM | 3.58 µM |  |  |  |
| C#CCN1C(=O)C(=O)c2cc(S(=O)(=O)N(C)Cc3ccccc3F)ccc21 | 9.43 µM | 2.48 µM | 128 µM | 55.2 µM |  |  |  |
| C#CCN(C)CCCOc1ccc(Cl)cc1Cl [CLORGILINE] |  |  |  |  | > 100 µM |  | Active |
| COC(=O)C[C@H](NC(=O)[C@H](C)NC(=O)[C@@H](NC(=O)OCc1ccccc1)C(C)C)C(=O)CF (Cbz-Val-Ala-Asp(OMe)-CH2F) |  |  |  |  | 40 µM |  |  |
